Several values for one entry are separate records, joined by “and”; a condition that tells them apart may be missing. Equal entries are not always repeated. Where two headings read alike, the source gives them in different places. Blank lines part the entries; values can stand above or below the compound they belong to.
Key:
[1] = system: human GLT-1/EAAT-2 promoter; experiment: GLT-1/EAAT-2 promoter luciferase reporter assay in COS-7 cells; format: cell-based; settings: COS-7 pE2P-GL3 (clone 4), 48 h; for maximal fold induction: Homo sapiens, normalized to DMSO control, read-out: Max Fold-Induction
Description: The astroglial glutamate transporter, GLT-1/EAAT-2, is responsible for the majority of glutamate transport in the brain and spinal cord. […] Results from each plate were normalized to the DMSO treated control wells and expressed as fold-induction. EC50 values were calculated using GraphPad Prism software.

[2] = system: luciferase reporter containing the UAG stop codon; experiment: Translational read-through luciferase reporter assay, UAG stop codon; format: cell-based; settings: read-out: MaxFold Increase
Text: This assay is described in detail in WO 01/44516 A2. This is a cell-based luciferase reporter assay designed to detect translational read-through via insertion of a translational stop codon within the luciferase coding sequence. In the presence of compounds that promote read-through of translational stop codons, active luciferase is produced and detected via chemiluminescence. We have shown that indoprofen analogs are active in two versions of this assay—one containing a UGA stop codon and one containing a UAG stop codon. The data in the table is from the luciferase reporter containing the UAG stop codon. This is the first stop codon downstream of the improper splice junction between exons 6 and 8 in the human SMN2 transcript.

[3] = system: SMN2-linked luciferase-reporter gene construct; experiment: SMN splice reporter assay (SMN2-linked luciferase reporter, Example 10); format: cell-based; settings: for maximal fold induction: read-out: SMN Splice Reporter Assay (Example 10) Avg MaxFold Increase
In short: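 Values are fold-increase in luciferase signal relative to baseline cells without compound. The cervical carcinoma line used holds a fusion of alternatively spliced SMN2 sequence and luciferase. Readable frame, and thus signal, arises only with exon 7-including splicing.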

[4] = Plasma and brain pharmacokinetics in mice; format: in vivo, FVB or CD-1 mice; settings: single dose; for Kp / half-life / AUC: mouse; for Kp: brain and plasma, read-out: Brain/Plasma Ratio
Description: Compounds were formulated in solution using the method of cosolvency as described by Lee et al., Int. J. Pharmaceutics, 253: 111-119 (2003). FVB or CD-1 mice, approximately 5 weeks old, were given a single dose of compound at the indicated concentration. Compounds were administered orally, with the exception of ALB-116638 and ALB-117573, which were administered IV. Three to five mice were euthanized at various times between 15 minutes and 24 hours after dosing and brain and plasma were harvested. Tissues were homogenized in acetonitrile and analyzed on an API 4000 LC/MS/MS system coupled with an Agilent 1100 series liquid chromatograph. All pharmacokinetic analyses were conducted using WinNonlin (Version 4.01; Pharsight, Palo Alto, Calif.) with the exception of brain/plasma ratios, which were calculated using Microsoft Excel 2000. AUC values are the area under the concentration-time curve from time zero to the last measured time point. The half life values are extrapolated from 3-4 time points taken at less than 4 hours after dosing.

[5] = system: SMN-containing gems in fibroblast cells from a type 1 SMA patient (3813 cells); experiment: Gem count by immunohistochemistry in type 1 SMA patient fibroblasts (3813 cells); format: cell-based, human; settings: for Number of gems per 100 nuclei, Treated Cells: 48 hours
Text: SMN protein can be found in punctate nuclear particles called “gems” (Liu and Dreyfuss, EMBO J. 15(14): 3555-3565 (1996)). In fibroblast cells derived from SMA patients, the number of gems corresponds to disease severity as follows: severe type 1 patients have approximately 5 gems per 100 nuclei; mild type 3 patients have 20-50 gems per 100 nuclei; normal individuals have approximately 100-150 gems per 100 nuclei (Coovert et al., Hum Mol Genet 6(8): 1205-1214 (1997), Young et al., Exp Cell Res 265(2): 252-261 (2001)).
Following these methods, fibroblast cells from a type 1 SMA patient (3813 cells, Coriell Cell Repositories) were treated for 48 hours with the compounds indicated in Table 2 (reference number—structure correlation is provided in Table 1). The cells were then fixed and incubated with a monoclonal antibody against SMN (4B7, Wolstencroft et al., Hum Mol Genet 14:1199-1210 (2005)). A FITC-conjugated anti-mouse secondary antibody was used to visualize the labeled gems.

[6] = system: SMN; experiment: Western blot of SMN in SMA type I fibroblasts (3813 cells); format: cell-based, human; settings: 48 hours, DMSO = 1
Description: Westerns blots were performed using the methods of Mattis et al., Hum Genet 120:589-601(2006)). SMA type I fibroblasts (3813 cells; Coriell Cell Repositories) were treated with compounds for 48 hours. Monoclonal anti-SMN antibody 4B7 (Wolstencroft et al., Hum Mol Genet 14:1199-1210 (2005)) was used to identify SMN. Actin was used as an internal normalization standard and detected with an anti-actin polyclonal rabbit antibody (Sigma-Aldrich). Tobramycin was used for the positive control compound treatment. DMSO is the untreated negative control. Values are presented as the ratio of the signals obtained for SMN and Actin.

[7] = system: SMN protein; settings: cited from earlier work
[8] = system: SMA model mouse fetuses; settings: administered in utero; cited from earlier work
[9] = SMN2-linked luciferase reporter, average
[10] = maximum fold increase of reporter signal, average
[11] = brain, 5 mg/kg, oral, read-out: Brain T½ (converted)
[12] = plasma, 5 mg/kg, oral, read-out: Plasma T½ (converted)
[13] = SMN2-linked luciferase reporter, average maximum fold increase

Structure (SMILES): CCCc1ccc2c(c1)C(=O)N(c1ccc(C(C)C(=O)O)cc1)C2 (stereo not shown) [Example 2, 2-(4-(1-oxo-6-propylisoindolin-2-yl)phenyl)propanoic acid]
melting point: 175 to 177 °C

Structure (SMILES): COCC(C)c1ccc(N2Cc3ccc(OC)cc3C2=O)cc1 (stereo not shown) [Example 4, 6-methoxy-2-(4-(1-methoxypropan-2-yl)phenyl)isoindolin-1-one]
melting point: 116 to 118 °C

Structure (SMILES): CC(C)c1ccc(N2Cc3ccc(Cl)cc3C2=O)cc1 [Example 5, 6-chloro-2-(4-isopropylphenyl)isoindolin-1-one]
melting point: 206 to 209 °C

Structure (SMILES): CC(C)c1ccc(N2Cc3ccc([N+](=O)[O-])cc3C2=O)cc1 [Example 6, 2-(4-isopropylphenyl)-6-nitroisoindolin-1-one]
melting point: 225 to 227 °C

Structure (SMILES): CC(C(=O)O)c1ccc(N2Cc3ccccc3C2=O)cc1 (stereo not shown) [Indoprofen]
production of SMN from the endogenous SMN2 gene ([7]; SMA patient fibroblasts): increase in production of SMN
level of expression of SMN protein ([7]; cultured cells, Lunn et al. 2004): increases the level of expression of SMN protein
survival of SMA model mouse fetuses [8]: increase survival
maximal fold induction [2]: 2.3
luciferase activity in SMN splice reporter assay ([3]; cervical carcinoma cell lines with SMN2-luciferase reporter): increases luciferase activity

Structure (SMILES): CCCC(CCC)C(=O)O [Positive Control, valproic acid, reference compound]
Number of gems per 100 nuclei, Positive Control ([5]; 1000 μM valproic acid, same patient fibroblasts): 31 gems per 100 nuclei and 38.7 gems per 100 nuclei

Structure (SMILES): NC[C@H]1O[C@H](O[C@H]2[C@H](O)[C@@H](O[C@H]3O[C@H](CO)[C@@H](O)[C@H](N)[C@H]3O)[C@H](N)C[C@@H]2N)[C@H](N)C[C@@H]1O [Tobramycin, reference compound]
SMN:Actin Ratio ([6]; 320 uM, positive control): 1.5

Now from value to compound, other results behind:

EC50 [1]: 460 nM
EC50 [3, 9]: 6720 nM
Structure (SMILES): CC(C(N)=O)c1ccc(N2Cc3ccccc3C2=O)cc1 (stereo not shown) [ALB-112171]
maximal fold induction [1]: 1.9
maximal fold induction [2]: 2.2
maximal fold induction [3, 10]: 1.34

EC50 [1]: 221 nM
EC50 [3, 9]: 801 nM
Structure (SMILES): COc1ccc2c(c1)C(=O)N(c1ccc(C(C)C(=O)OC(C)(C)C)cc1)C2 (stereo not shown) [ALB-112354]
maximal fold induction [1]: 1.93
maximal fold induction [2]: 2
maximal fold induction [3, 10]: 1.46

Brain AUC ([4]; 5 mg/kg, oral): 570.0 ng·h/g
Kp ([4]; 5 mg/kg, oral): 0.03
half-life [4, 11]: 2.6 h
AUC ([4]; plasma, 5 mg/kg, oral): 21100 ng·h/mL
half-life [4, 12]: 7.6 h
EC50 [3, 9]: 83 nM
Structure (SMILES): COc1ccc2c(c1)C(=O)N(c1ccc(C(C)C(=O)O)cc1)C2 (stereo not shown) [ALB-112355]
maximal fold induction [2]: 2.7
Number of gems per 100 nuclei, Treated Cells ([5]; 0.45 μM): 5.3 gems per 100 nuclei
maximal fold induction [3, 10]: 1.85

EC50 [3, 9]: 49 nM
Structure (SMILES): CCCc1ccc2c(c1)C(=O)N(c1ccc(C(C)C(=O)O)cc1)C2 (stereo not shown) [ALB-113310]
SMN:Actin Ratio ([6]; 0.1 uM): 4.8
SMN:Actin Ratio ([6]; 1 uM): 6.2
maximal fold induction [2]: 3.7
Number of gems per 100 nuclei, Treated Cells ([5]; 3 μM): 53.5 gems per 100 nuclei
maximal fold induction [3, 10]: 2.1

EC50 [1]: 1270 nM
EC50 [3, 9]: 6030 nM
Structure (SMILES): CC(CN(C)C)c1ccc(N2Cc3ccccc3C2=O)cc1 (stereo not shown) [ALB-113968]
maximal fold induction [1]: 1.78
maximal fold induction [3, 10]: 1.37

EC50 [3, 9]: 81 nM
Structure (SMILES): COc1ccc2c(c1)C(=O)N(c1ccc(C(C)C)cc1)C2 [ALB-115069]
SMN:Actin Ratio ([6]; 0.1 uM): 4.3
SMN:Actin Ratio ([6]; 1 uM): 5.7
Number of gems per 100 nuclei, Treated Cells ([5]; 1 μM): 45.25 gems per 100 nuclei
maximal fold induction [3, 10]: 1.5

Brain AUC ([4]; 5 mg/kg, oral): 553.8 ng·h/g
Brain AUC ([4]; 25 mg/kg, oral): 5950.9 ng·h/g
Kp ([4]; 5 mg/kg, oral): 51.7
Kp ([4]; 25 mg/kg, oral): 15
half-life [4, 11]: 0.6 h
half-life ([4]; brain, 25 mg/kg, oral, read-out: Brain T½ (converted)): 2.9 h
AUC ([4]; plasma, 5 mg/kg, oral): 10.7 ng·h/mL
half-life [4, 12]: 9.4 h
AUC ([4]; plasma, 25 mg/kg, oral): 397 ng·h/mL
half-life ([4]; plasma, 25 mg/kg, oral, read-out: Plasma T½ (converted)): 1.1 h
EC50 [3, 9]: 324 nM
Structure (SMILES): COc1ccc2c(c1)C(=O)N(c1ccc(C(C)(C)C)cc1)C2 [ALB-115210]
maximal fold induction [2]: 2.9
maximal fold induction [3, 10]: 1.47

Brain AUC ([4]; 5 mg/kg, oral): 163.8 ng·h/g
Kp ([4]; 5 mg/kg, oral): 3.43
half-life [4, 11]: 0.5 h
AUC ([4]; plasma, 5 mg/kg, oral): 47.8 ng·h/mL
half-life [4, 12]: 0.6 h
EC50 [3, 9]: 203 nM
Structure (SMILES): CC(C)c1ccc(N2Cc3cc4c(cc3C2=O)OCCO4)cc1 [ALB-115498]
maximal fold induction [1]: 0.86
Number of gems per 100 nuclei, Treated Cells ([5]; 1 μM): 14.3 gems per 100 nuclei
maximal fold induction [3, 10]: 1.83

EC50 [3, 9]: 41 nM
Structure (SMILES): CC(C)c1ccc(N2Cc3ccc(N(C)C)cc3C2=O)cc1 [ALB-115806]
maximal fold induction [1]: 0.87
maximal fold induction [2]: 2
Number of gems per 100 nuclei, Treated Cells ([5]; 0.4 μM): 8 gems per 100 nuclei
maximal fold induction [3, 10]: 1.47

EC50 [3, 9]: 599 nM
Structure (SMILES): CC(C)c1ccc(N2Cc3ccc(OC(F)F)cc3C2=O)cc1 [ALB-116244]
maximal fold induction [2]: 2.8
Number of gems per 100 nuclei, Treated Cells ([5]; 0.1 μM): 44 gems per 100 nuclei
maximal fold induction [3, 13]: 1.57

EC50 [3, 9]: 50 nM
Structure (SMILES): CN(C)Cc1ccc(N2Cc3ccccc3C2=O)cc1 [ALB-116255]
maximal fold induction [1]: 1.2
maximal fold induction [3, 10]: 1.09

EC50 [1]: 6.79 nM
EC50 [3, 9]: 3560 nM
Structure (SMILES): COCC(C)c1ccc(N2Cc3cc4c(cc3C2=O)OCCO4)cc1 (stereo not shown) [ALB-116361]
maximal fold induction [1]: 1.54
maximal fold induction [3, 10]: 1.9

EC50 [3, 9]: 757 nM
Structure (SMILES): CC(C)c1ccc(N2Cc3ccc(NS(C)(=O)=O)cc3C2=O)cc1 [ALB-116486]
maximal fold induction [1]: 1.17
maximal fold induction [2]: 2.4
maximal fold induction [3, 13]: 1.49

Brain AUC ([4]; 5 mg/kg, oral): 338.1 ng·h/g
half-life [4, 11]: 9.4 h
EC50 [3, 9]: 78 nM
Structure (SMILES): COCc1ccc2c(c1)C(=O)N(c1ccc(C(C)C)cc1)C2 [ALB-116935]
maximal fold induction [2]: 1.9
maximal fold induction [3, 10]: 1.52

Brain AUC ([4]; 5 mg/kg, IV): 64.5 ng·h/g
half-life ([4]; brain, 5 mg/kg, IV, read-out: Brain T½ (converted)): 7.4 h
EC50 [3, 9]: 345 nM
Structure (SMILES): CC(C)c1ccc(N2Cc3ccc(NC(N)=O)cc3C2=O)cc1 [ALB-117573]
maximal fold induction [2]: 4.4
maximal fold induction [3, 13]: 1.67

— patent publication US8110681B2, “Compounds for the treatment of spinal muscular atrophy and other uses” (The United States of America as represented by the …, priority 2006, dated 2012)
